≈ marks a conversion by molar mass, not a printed value.
Columns and labels:
Type in all cases: functional
Conditions in all cases: read-out: ED50 (the source's name)
[1] = Cytotoxicity against human BC1 cells
Lu1 = experiment: Cytotoxicity against human Lu1 cells
KB = experiment: Cytotoxicity against human KB cells
Col2 = experiment: Cytotoxicity against human Col2 cells
LNCaP = experiment: Cytotoxicity against human LNCAP cells
[2] = Cytotoxicity against human KBVIN cells in absence of vinblastine
[3] = Cytotoxicity against human KBVIN cells in presence of vinblastine

CC(=O)O[C@@H](C)[C@@H](/C=C/[C@@H]1O[C@@H]1[C@@H]1OC(=O)C=C[C@@H]1OC(C)=O)OC(C)=O
EC50 [1]: 1.8 µg/mL (≈ 4.71 µM) | EC50 (Lu1): 4.8 µg/mL (≈ 12.6 µM) | EC50 (KB): 1.8 µg/mL (≈ 4.71 µM) | EC50 (Col2): 2.1 µg/mL (≈ 5.49 µM) | EC50 (LNCaP): 1.2 µg/mL (≈ 3.14 µM) | EC50 [2]: 2.1 µg/mL (≈ 5.49 µM) | EC50 [3]: 2.2 µg/mL

From ChEMBL document CHEMBL1146400, “10-Epi-olguine from Rabdosia ternifolia” (1997)
